Assays:
E. coli J5 LPS = assay: Inhibition of RNIP-mediated hemagglutination by LPS preparation; type: binding; conditions: Peptide #36-1 16 μg/ml, RNIP (#197) 25 μg/ml preincubated with LPS 37° 30 minutes
Experimental: (§1) For hemagglutination assays, erythrocytes were sensitized with LPS as follows. One ml of 1% erythrocyte suspension (human 0 type, C3H/HeN mouse or sheep) was mixed with 0.2 ml of LPS solution and incubated at 37° C. for 30 min, followed by washing with phosphate buffered saline (PBS), and then the concentration of suspension was adjusted to 1.0%. In the case of S-LPS, the solution was heated at 100° C. for 1 hour before sensitization of erythrocytes. […] Activity of CAP was expressed as a minimum agglutinating concentration (MAC) of CAP. According to the method of Kirikae et al. (1986) Microbiol. Immunol. 30:269-274, 50 μl of 2-fold serial dilution of Re-LPS was added to 50 μl of 1.0% rabbit erythrocyte suspension, and incubated at 37° C. for 3 hour. Minimum agglutinating concentration of Re-LPS was expressed as 1 HA unit.
(§2) Another series of experiments was performed to determine if the #36-1 and #197 (RNIP) peptides were capable of binding to LPS from various species of Gram-negative bacteria. For these experiments, sheep red blood cells were sensitized with Salmonella minnesota Re-LPS. Peptides #36-1 and #197 (RNIP) were preincubated with various preparations of LPS. Both peptides bind to a diverse group of lipopolysaccharides.
(§3) +Peptide #361 (16 μg/ml) and RNIP (#197) (25 μg/ml) were
(§4) preincubated with each LPS preparation at 37° for 30 minutes, and
(§5) each reaction mixture was added to sheep erythrocytes sensitized with […]

E. coli 0111:B4 LPS = assay: as above; type: binding; conditions: Peptide #36-1 16 μg/ml, RNIP (#197) 25 μg/ml preincubated with LPS 37° 30 minutes
Experimental: as §1, §2, §3, §4, §5

E. coli 0127:B8 LPS = assay: as above; type: binding; conditions: Peptide #36-1 16 μg/ml, RNIP (#197) 25 μg/ml preincubated with LPS 37° 30 minutes
Experimental: as §1, §2, §3, §4, §5

E. coli 055:B5 LPS = assay: as above; type: binding; conditions: Peptide #36-1 16 μg/ml, RNIP (#197) 25 μg/ml preincubated with LPS 37° 30 minutes
Experimental: as §1, §2, §3, §4, §5

[1] = system: Salmonella minnesota R595 LPS; assay: as above; type: binding; conditions: Peptide #36-1 16 μg/ml, RNIP (#197) 25 μg/ml preincubated with LPS 37° 30 minutes
Experimental: as §1, §2, §3, §4, §5

[2] = system: Klebsiella pneumoniae LPS; assay: as above; type: binding; conditions: Peptide #36-1 16 μg/ml, RNIP (#197) 25 μg/ml preincubated with LPS 37° 30 minutes
Experimental: as §1, §2, §3, §4, §5

[3] = system: Pseudomonas aeruginosa F-D Type I LPS; assay: as above; type: binding; conditions: Peptide #36-1 16 μg/ml, RNIP (#197) 25 μg/ml preincubated with LPS 37° 30 minutes
Experimental: as §1, §2, §3, §4, §5

human monocytes = assay: TNF release from LPS and IFNγ stimulated monocytes; type: cell-based
factor Xa = target: T1, factor Xa (Homo sapiens, UniProt P00742); assay: Direct Xa inhibition using Xa substrate S2222; type: biochemical; conditions: concentrations over 10 μg/ml
T1 construct: purchased Sigma Chemical Co., St. Louis, Mo
T1 sequence (P00742 235-488 limits assumed): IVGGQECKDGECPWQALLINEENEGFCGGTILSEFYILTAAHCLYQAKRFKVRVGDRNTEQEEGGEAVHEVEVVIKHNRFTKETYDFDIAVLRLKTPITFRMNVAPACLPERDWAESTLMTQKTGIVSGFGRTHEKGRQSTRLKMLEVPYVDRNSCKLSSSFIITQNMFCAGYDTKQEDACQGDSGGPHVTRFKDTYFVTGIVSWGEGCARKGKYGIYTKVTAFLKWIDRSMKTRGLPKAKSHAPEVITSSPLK
T1 sequence (P00742 41-179 limits assumed): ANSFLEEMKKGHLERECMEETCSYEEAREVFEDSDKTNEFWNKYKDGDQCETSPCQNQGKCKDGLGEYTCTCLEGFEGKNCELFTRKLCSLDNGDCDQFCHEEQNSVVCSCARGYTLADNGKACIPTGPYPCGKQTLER
From the text: Clotting method: Human plasma (Ortho plasma control, Ortho Diagnostic Co.). ATPP reagent(Organo-technika, Tokyo, Japan). Standard tissue factor, rabbit brain thromboplastin (Simplastin, ONO Pharmaceutical, Tokyo, Japan). Purified human factor VII, factor X, factor Xa (Sigma Chemical Co., St. Louis, Mo.). Russell Viper venom (RVV) and Echis Carinatus venom (ECV, Sigma Co.).
Synthetic chromogenic substrate method: Substrate for factor Xa, S2222 (Kabi, Bz-Ile-Glu-Arg-pNA) was used. Substrate for factor II (prothrombin), Boc-Val-Pro-Arg-pNA (Sigma Chemical Co.) was used.

prothrombin (factor II) = prothrombin (factor II) (Homo sapiens, UniProt P00734); assay: Prothrombin activation by Echis Carinatus venom (ECV); type: biochemical
Experimental: Prothrombin activation by Echis Carinatus venom (ECV). A reaction mixture of prothrombin (factor II) (0.1 unit/ml, 200 μl), ECV (1 unit/ml, 200 μl), various concentration of peptide (70 μl), 50 μl of 25 mM-CaCl2 and 180 μl of Tris buffer was incubated at 37° C. for 10 min. To 300 μl of the reaction mixture, 60 μl of 4 mM-thrombin substrate and 240 μl of buffer was added and further incubated for 15 min.

[4] = system: thioglycolate elicited murine peritoneal exudate cells; assay: RNI generation by thioglycolate elicited peritoneal exudate cells; type: cell-based; conditions: for RNI: RNIP 50 nm
Experimental: (§6) From the sequence of the CAP18 cDNA, it was apparent that the putative N-terminal peptide of CAP18 was in fact an internal fragment of the CAP18 protein. We therefore tried to reconfirm the original protein sequence. Neutrophil-derived heparin bound cationic proteins were prepared as described above and applied to a C18 reverse phase HPLC (FIG. 1). We sequenced the major peaks. Peaks at fractions 14.5 and 15.2 correspond to defensins MCP1 and MCP2 (Territo et al. (1989) J. Clin. Invest. 84:2017-2019), respectively. Fraction 25.8 is macrophage related protein 14 (MRP14) (Odink et al. (1987) Nature 330:80-82). The fraction at 20.3 minutes corresponds to a fragment of CAP18 of approximately 4-5 kD. […] The murine macrophage cell line RAW 264.7 (obtained from ATCC) and thioglycollate-elicited murine peritoneal exudate cells are used to produce RNI. Cells are cultured at 1×10^6 /ml. in RPMI-1640 +2.5% FCS in 24 well plates in the presence or absence of different concentrations of LPS or murine rlFNγ. After 24 hr. incubation at 37° C., the cell free supernatant is collected and tested for the presence of RNI. Accumulation of nitrite in the medium is measured by a calorimetric assay based on the Griess reaction (Green et al. (1982) Anal. Biochem. 126:11) using sodium nitrite as standards. Sample (50 μl) is mixed with 50 μl of Griess reagent (1% sulfanilamide, 0.1% naphthalene diamine dihydrochloride, 2.5% H3 PO4) and after 10 min. at room temperature absorbance is read at 570 nm.

RAW 264.7 cells [5] = assay: Reversal of LPS-induced inhibition of cell proliferation; type: cell-based, murine; conditions: cultures containing 5 ng/ml of LPS
Experimental: When LPS is added to RAW 264.7 cells it causes a dose-dependent inhibition of proliferation with differentiation of the cells into a macrophasge phenotype.

E. coli O9:K39 K- strain = assay: Antibacterial CFU assay
E. coli O9:K39 K+ strain = assay: Antibacterial CFU assay
RAW 264.7 cells [6] = assay: LPS- or IFNγ-induced reactive nitrogen intermediate (RNI) production, Griess nitrite assay; type: cell-based, murine
Experimental: as §6

[7] = read-out: IC50, anti-bacterial activity

With “RNIP: rabbit reactive nitrogen inhibitory protein, amino acids 135-171 of SEQ ID NO:4; purified from granulocytes (Tables 1-3) or synthetic (#197) (GLRKRLRKFRNKIKEKLKKIGQKIQGLLPKLAPRTDY)” the “MIC, minimal inhibitory concentration of LPS” value (E. coli J5 LPS) was 15.6 µg/mL, the “MIC, minimal inhibitory concentration of LPS” value (E. coli 0111:B4 LPS) was 31.3 µg/mL and the “MIC, minimal inhibitory concentration of LPS” value (E. coli 0127:B8 LPS) was 62.5 µg/mL. The “MIC, minimal inhibitory concentration of LPS” value (E. coli 055:B5 LPS) was 62.5 µg/mL, the “MIC, minimal inhibitory concentration of LPS” value [1] was 62.5 µg/mL and the “MIC, minimal inhibitory concentration of LPS” value [2] was 62.5 µg/mL. The “MIC, minimal inhibitory concentration of LPS” value [3] was 15.6 µg/mL, the TNF (human monocytes; Human IFNγ (100 U), CAP (1:1), stimulus alone 2.0) was 0.27 ng/mL and the TNF (human monocytes; Human IFNγ (100 U), CAP (1:10), stimulus alone 2.0) was 0.35 ng/mL. It also gave a TNF (human monocytes; Human IFNγ (100 U), CAP (1:100), stimulus alone 2.0) of 0.35 ng/mL, a TNF (human monocytes; LPS (10 ng/ml), CAP (1:1), stimulus alone 1.0) of 0.12 ng/mL and a TNF (human monocytes; LPS (10 ng/ml), CAP (1:10), stimulus alone 1.0) of 0.34 ng/mL. The TNF (human monocytes; LPS (10 ng/ml), CAP (1:100), stimulus alone 1.0) was 0.23 ng/mL, the “direct Xa inhibition (in words)” value (factor Xa) was “No evidence of direct Xa inhibition” and the “inhibition of Echis carinatus venom activation of purified factor II to IIa (in words)” value (prothrombin (factor II)) was “inhibited”. It also gave an RNI ([4]; IFNγ 500 U/ml, without RNIP 4.0 ± 0.8) of 1.1 µM, an IC50 ([4]; IFNγ stimulated, read-out: IC50 for inhibition of gamma interferon stimulated nitrogen radical release) of under 50 nM and an RNI ([4]; LPS + IFNγ 1 ng + 500 U/ml, without RNIP 26 ± 0.6) of 14 ± 0.7 µM. The “effect on LPS-induced inhibition of RAW 264.7 cell proliferation” value (RAW 264.7 cells [5]) was “reverses the inhibition of proliferation”, the “IC50, anti-bacterial activity” value (E. coli O9:K39 K- strain) was 0.68 µg/mL and the IC50 (E. coli O9:K39 K- strain; [7]) was 110 nM. The “IC50, anti-bacterial activity” value (E. coli O9:K39 K+ strain) was 0.14 µg/mL, the IC50 (E. coli O9:K39 K+ strain; [7]) was 20 nM and the “concentrations at which peptides are active in the bioassay” value (RAW 264.7 cells [6]; day-to-day variation in the bioassay) was 10 to 50 nM. For the same substance, the “inhibition of LPS-induced RNI production (in words)” value (RAW 264.7 cells [6]; macrophages / RAW 264.7 cells) was “active”.

— patent US6103888A, “Mammalian cationic proteins having lipopolysaccharide binding and anti-coagulant activity” (priority 1999, dated 2000)
